According to the NIST ThermoML archive (doi:10.1016/j.jct.2014.12.020):

Experiment: wn = mass fraction of the nth substance listed
Conditions: 100 kPa, Liquid; for viscosity: Concentric cylinders viscometry; for mass density: Vibrating tube method

CCC(=O)[O-].C[N+](C)(C)CCO [cholinium propanoate] + O
Conditions | mass density [kg/m3] | viscosity [mPa·s]
293.15 K, w2 = 0.003 | 1070.1 | 4600
293.15 K, w2 = 0.01 | 1070.9 | 3316.4
293.15 K, w2 = 0.021 | 1072.1 | 2130.4
293.15 K, w2 = 0.025 | 1072.3 | 1826.4
293.15 K, w2 = 0.046 | 1074 | 980.3
293.15 K, w2 = 0.064 | 1075.3 | 607
293.15 K, w2 = 0.1 | 1076.9 | 286
293.15 K, w2 = 0.127 | 1077.5 | 193.3
293.15 K, w2 = 0.208 | 1077.7 | 74.5
293.15 K, w2 = 0.262 | 1075.4 | 49.6
298.15 K, w2 = 0.003 | 1067.4 | 2918.6
298.15 K, w2 = 0.01 | 1068.1 | 2112.2
298.15 K, w2 = 0.021 | 1069.2 | 1416.6
298.15 K, w2 = 0.025 | 1069.5 | 1227.2
298.15 K, w2 = 0.046 | 1071.1 | 681.1
298.15 K, w2 = 0.064 | 1072.3 | 432.9
298.15 K, w2 = 0.1 | 1074 | 211.8
298.15 K, w2 = 0.127 | 1074.6 | 145.4
298.15 K, w2 = 0.208 | 1074.9 | 57.9
298.15 K, w2 = 0.262 | 1072.3 | 39.1
303.15 K, w2 = 0.003 | 1064.6 | 1909.6
303.15 K, w2 = 0.01 | 1065.3 | 1410
303.15 K, w2 = 0.021 | 1066.4 | 968.2
303.15 K, w2 = 0.025 | 1066.7 | 847.5
303.15 K, w2 = 0.046 | 1068.2 | 484.8
303.15 K, w2 = 0.064 | 1069.5 | 315.7
303.15 K, w2 = 0.1 | 1071.2 | 159.9
303.15 K, w2 = 0.127 | 1071.9 | 111.4
303.15 K, w2 = 0.208 | 1072 | 45.8
303.15 K, w2 = 0.262 | 1069.4 | 31.4
308.15 K, w2 = 0.003 | 1061.9 | 1285
308.15 K, w2 = 0.01 | 1062.5 | 967
308.15 K, w2 = 0.021 | 1063.6 | 678.9
308.15 K, w2 = 0.025 | 1063.8 | 599.9
308.15 K, w2 = 0.046 | 1065.4 | 353
308.15 K, w2 = 0.064 | 1066.7 | 235.1
308.15 K, w2 = 0.1 | 1068.4 | 123
308.15 K, w2 = 0.127 | 1069.1 | 86.8
308.15 K, w2 = 0.208 | 1069.2 | 36.7
308.15 K, w2 = 0.262 | 1066.5 | 25.5
313.15 K, w2 = 0.003 | 1059.2 | 888.1
313.15 K, w2 = 0.01 | 1059.8 | 680.2
313.15 K, w2 = 0.021 | 1060.8 | 487.3
313.15 K, w2 = 0.025 | 1061 | 434.3
313.15 K, w2 = 0.046 | 1062.6 | 262.3
313.15 K, w2 = 0.064 | 1063.9 | 178.4
313.15 K, w2 = 0.1 | 1065.7 | 96.1
313.15 K, w2 = 0.127 | 1066.4 | 68.7
313.15 K, w2 = 0.208 | 1066.3 | 29.8
313.15 K, w2 = 0.262 | 1063.6 | 20.8
318.15 K, w2 = 0.003 | – | 628.8
318.15 K, w2 = 0.01 | – | 489.6
318.15 K, w2 = 0.021 | – | 357.4
318.15 K, w2 = 0.025 | – | 321.1
318.15 K, w2 = 0.046 | – | 198.7
318.15 K, w2 = 0.064 | – | 137.7
318.15 K, w2 = 0.1 | – | 76.2
318.15 K, w2 = 0.127 | – | 55.1
318.15 K, w2 = 0.208 | – | 24.5
318.15 K, w2 = 0.262 | – | 17.5
